In patent US7414078B2, “Oral general anesthetics and metabolitically resistant anticonvulsants” (University of Virginia Patent Foundation, priority 2001, dated 2008):
Marks after values point to notes of the source that are not given here.

How the values were obtained:
[1] = test system: loss of righting reflex or other toxic effects on spinning rod; assay: Toxicity test (TOX), spinning rod, rat oral (NIH); assay type: in vivo, rats; settings: 30 mg/kg
Procedure: (§1) 300 mg of each compound was synthesized and sent to the National institute of Health's Anticonvulsant Screening Project of the Antiepileptic Drug Discovery Program. NIH performs anticonvulsant testing (oral and intraperitoneal, i.p.) on both mice and rats in phase I trials. The grand mal model is conducted with a maximal electroshock (MES) test, where corneal electrode implants are primed with a drop of electrolyte solution and an electrical stimulus is delivered for 0.2 second. The model examines the compounds' ability to stop the spread of seizures. The petite mal model is conducted with a subcutaneous pentylenetetrazol seizure threshold (scMet) test. The animals are injected with a convulsant dose of pentylenetetrazol at the peak effect time of the compound. This model measures the compounds' threshold for seizures. A toxicity test (TOX) is performed where the animals walk on a spinning rod for varying lengths of time to check for the loss of righting reflex or other toxic effects.

[2] = test system: Isoflurane anesthesia (minimum alveolar concentration, MAC); assay: General anesthesia test: reduction of isoflurane MAC after i.p. compound; assay type: in vivo, rats; settings: for MAC value of Isoflurane at 60 mg/kg of compound / Percent Reduction in Isoflurane: rats; for MAC value of Isoflurane at 60 mg/kg of compound: 60 mg/kg i.p. in peanut oil, 1.2% isoflurane generates 100% anesthesia; for Percent Reduction in Isoflurane: 60 mg/kg i.p., relative to 1.2% isoflurane; for anesthetic activity: rat, in vivo
Procedure: The MAC value is the minimum alveolar concentration of anesthetic at 1 atm that produces immobility in 50% of the subjects.
200 mg of each compound are tested for general anesthesia activity Testing is performed on rats to determine the percent reduction in the use of isoflurane. Inhaled anesthetics still need to be utilized to rapidly adjust the level of anesthesia. Since no single anesthetic is capable of all four requirements for anesthesia, a combination is utilized. The rats were first anesthetized with isoflurane, intubated, ventilated and then a femoral line was inserted. After the rat had been stable for 15 minutes, the initial minimum alveolar concentration (MAC) value was determined. […] After 30 minutes the second MAC value was determined post administration. Finally, after one hour the third MAC value was determined. At each MAC determination, a sample of blood was taken to determine pH, pCO2, and pO2. The results of the compounds tested to date are compared to the lead compound 17.
(§2) A classical comparison of log P and MAC reduction was investigated. A graph representing the effects of log P on the biological activity is presented in graphic form (See FIG. 1). The general anesthetic activity of compounds 20-23 and 36-43 were compared to lead compound 17 as represented in the graph (FIG. 1) and in Table 1. The partition coefficient, P, is a measure of the way the compound distributes itself between octanol and water. […] Therefore, meta-substituted derivatives 20 will be the focus of future synthesize. Bulky substituents on the alcohol were also found to have low activity.

[3] = test system: pentylenetetrazol-induced seizures (scMet); assay: Subcutaneous pentylenetetrazol seizure threshold (scMet) test, mice i.p. (NIH); assay type: in vivo; settings: for SCMET, animals protected/animals tested: mice i.p.
Procedure: as §1

[4] = test system: seizures induced by maximal electroshock (MES); assay: Maximal electroshock (MES) test, rat oral (NIH); assay type: in vivo, rats; settings: 30 mg/kg; for MES, animals protected/animals tested: rat oral
Procedure: as §1

[5] = test system: loss of righting reflex or other toxic effects on spinning rod; assay: Toxicity test (TOX), spinning rod, mice i.p. (NIH); assay type: in vivo; settings: for TOX, animals affected/animals tested: mice i.p.
Procedure: as §1

[6] = test system: blood pressure / hemodynamics; assay: Hemodynamic effects during isoflurane anesthesia; assay type: in vivo, rats; settings: rats, 60 mg/kg i.p., isoflurane anesthesia
Procedure: 200 mg of each compound are tested for general anesthesia activity Testing is performed on rats to determine the percent reduction in the use of isoflurane. Inhaled anesthetics still need to be utilized to rapidly adjust the level of anesthesia. Since no single anesthetic is capable of all four requirements for anesthesia, a combination is utilized. The rats were first anesthetized with isoflurane, intubated, ventilated and then a femoral line was inserted. After the rat had been stable for 15 minutes, the initial minimum alveolar concentration (MAC) value was determined. Then, 60 mg/kg of drug was sonicated in 3 mL of peanut oil and injected (i.p.). After 30 minutes the second MAC value was determined post administration. Finally, after one hour the third MAC value was determined. At each MAC determination, a sample of blood was taken to determine pH, pCO2, and pO2. The results of the compounds tested to date are compared to the lead compound 17.

[7] = test system: seizures induced by maximal electroshock (MES); assay: Maximal electroshock (MES) test, mice i.p. (NIH); assay type: in vivo; settings: for MES, animals protected/animals tested: mice i.p.; for MES, mice protected: phase I i.p. mice
Procedure: as §1

[8] = test system: toxicity, lethal dose; assay: Toxicity / lethal dose noted with general anesthetic activity comparison; assay type: in vivo; settings: for toxicity: same dosage = 300 mg/kg; for lethal dose: in vivo
Text: as §2

[9] = 300 mg/kg, 0.5 hours, footnotes: loss of righting reflex (and one death for Cmp 20, 21)
[10] = 300 mg/kg, 4.0 hours, footnote c: loss of righting reflex (Cmp 20, 21)

SMILES | TOX, animals affected/animals tested ([1]; 0.25 hrs.) | MAC value of Isoflurane at 60 mg/kg of compound [2] | Percent Reduction in Isoflurane [2] | SCMET, animals protected/animals tested ([3]; 30 mg/kg, 0.5 hours) | SCMET, animals protected/animals tested ([3]; 30 mg/kg, 4.0 hours) | SCMET, animals protected/animals tested ([3]; 100 mg/kg, 0.5 hours) | SCMET, animals protected/animals tested ([3]; 100 mg/kg, 4.0 hours) | TOX, animals affected/animals tested ([5]; 30 mg/kg, 0.5 hours) | TOX, animals affected/animals tested ([5]; 30 mg/kg, 4.0 hours) | TOX, animals affected/animals tested ([5]; 100 mg/kg, 0.5 hours) | TOX, animals affected/animals tested ([5]; 100 mg/kg, 4.0 hours) | TOX, animals affected/animals tested [5, 9] | TOX, animals affected/animals tested [5, 10] | Hemodynamic Effects [6] | MES, animals protected/animals tested ([7]; 30 mg/kg, 0.5 hours) | MES, animals protected/animals tested ([7]; 30 mg/kg, 4.0 hours) | MES, animals protected/animals tested ([7]; 100 mg/kg, 0.5 hours) | MES, animals protected/animals tested ([7]; 100 mg/kg, 4.0 hours) | anesthetic activity [2] | toxicity [8] | other results
CN1C(=O)C(O)(C(F)(F)F)c2ccccc21 (centres unmarked) [Compound 23] | 0/4 | 0.95% | 20.8% | 1/5 | 0/1 | 0/1 | 0/1 | 0/4 | 0/2 | 1/8 | 0/4 | 4/4^c | 1/2 | none | 0/1 | 0/1 | 3/3 | 0/3 |  |  | TOX, animals affected/animals tested ([1]; 0.5 hrs.): 0/4; TOX, animals affected/animals tested ([1]; 1.0 hrs.): 0/4; TOX, animals affected/animals tested ([1]; 2.0 hrs.): 0/4; TOX, animals affected/animals tested ([1]; 4.0 hrs.): 0/4; SCMET, animals protected/animals tested ([3]; 300 mg/kg, 0.5 hours): 1/1; SCMET, animals protected/animals tested ([3]; 300 mg/kg, 4.0 hours): 1/1; MES, animals protected/animals tested ([4]; 0.25 hrs.): 2/4; MES, animals protected/animals tested ([4]; 0.5 hrs.): 1/4; MES, animals protected/animals tested ([4]; 1.0 hrs.): 2/4; MES, animals protected/animals tested ([4]; 2.0 hrs.): 2/4; MES, animals protected/animals tested ([4]; 4.0 hrs.): 2/4; MES, animals protected/animals tested ([7]; 300 mg/kg, 0.5 hours): 1/1; MES, animals protected/animals tested ([7]; 300 mg/kg, 4.0 hours): 1/1
NC(=O)C(O)(c1ccc(F)cc1)C(F)(F)F (centres unmarked) [Compound 39, 3,3,3-Trifluoro-2-hydroxy-2-(4-fluoro-phenyl)-propionamide] |  |  |  |  |  |  |  |  |  |  |  |  |  |  |  |  |  |  | very active | toxic at the same dosage | animals with a 100% reduction in Isoflurane MAC ([2]; 300 mg/kg): 3 out of 4; activity as an anticonvulsant in scMET assay ([3]; species and dose not stated): demonstrated activity; MES, rats protected ([4]; phase I oral rat, duration of 2 hours): 4 out of 4; Neurotoxicity, mice unable to grasp rod ([5]; mice, 100 mg/kg, duration of 0.5 hours): seven of eight; MES, mice protected ([7]; 100 mg/kg, duration of 0.5 hours): 5 out of 5; MES, mice protected ([7]; 100 mg/kg, duration of 1 hour): 2 out of 3
O=C1Nc2ccccc2C1(O)C(F)(F)F (centres unmarked) [Compound 22] |  | 1.05% | 12.5% |  |  |  |  |  |  |  |  |  |  | none |  |  |  |  |  |  | 
NC(=O)C(O)(c1cccc(F)c1)C(F)(F)F (racemic) [Compound 20] |  | 0.70% | 42% | 2/5 | 0/1 | 1/1 | 1/1 | 0/4 | 0/2 | 6/8 | 0/4 | 4/4^b | 1/1^c | lowers blood | 0/1^a | 0/1 | 3/3 | 3/3 | high activity | very toxic | lethal dose [8]: 300 mg/kg; MES, animals protected/animals tested ([7]; 300 mg/kg, 0.5 hours): 0/0; MES, animals protected/animals tested ([7]; 300 mg/kg, 4.0 hours): 1/1
NC(=O)C(O)(c1ccccc1)C(F)(F)Cl (centres unmarked) [Compound 42] |  |  |  |  |  |  |  |  |  |  |  |  |  |  |  |  |  |  | high activity | very toxic | lethal dose [8]: 300 mg/kg
NC(=O)C(O)(c1ccc(Cl)cc1)C(F)(F)F (racemic) [Compound 21] | 0/4 | 0.65% | 46% | 0/1 | 0/1 | 4/4 | 1/1 | 0/4 | 0/2 | 6/8 | 3/4 | 4/4^b | 1/1^c | none | 0/1 | 0/1 | 0/3 | 1/3 | very active | toxic at the same dosage | TOX, animals affected/animals tested ([1]; 0.5 hrs.): 0/4; TOX, animals affected/animals tested ([1]; 1.0 hrs.): 0/4; TOX, animals affected/animals tested ([1]; 2.0 hrs.): 0/4; TOX, animals affected/animals tested ([1]; 4.0 hrs.): 0/4; SCMET, animals protected/animals tested ([3]; 300 mg/kg, 0.5 hours): 0/0; SCMET, animals protected/animals tested ([3]; 300 mg/kg, 4.0 hours): 1/1; MES, animals protected/animals tested ([4]; 0.25 hrs.): 1/4; MES, animals protected/animals tested ([4]; 0.5 hrs.): 1/4; MES, animals protected/animals tested ([4]; 1.0 hrs.): 1/4; MES, animals protected/animals tested ([4]; 2.0 hrs.): 1/4; MES, animals protected/animals tested ([4]; 4.0 hrs.): 1/4
